Experimental data: publication PMC10975178, “Evaluation on the Potential for Hepatotoxic Components from Herba Epimedii to Induce Apoptosis in HepG2 Cells and the Analysis of the Influence of Metabolism in Liver Microsomes” (Molecules, 2024)
Read-outs that look alike come from different tables or passages of the source.

What was measured:
HepG2 cells = assay: HepG2 cell apoptosis after incubation of the compound with human liver microsomes (metabolism mixture); assay type: cell-based; conditions: mixture on HepG2 cells 24 h
Procedure: HepG2 cells were cultured in Roswell Park Memorial Institute (RPMI) 1640 medium (GIBCO, Grand Island, NY, USA) supplemented with 10% heat-inactivated fetal bovine serum (PAN Biotech GmbH, Aidenbach, Germany), 100 U/mL penicillin, and 100 μg/mL streptomycin. The cells were maintained in a humidified atmosphere with 5% CO2 at 37 °C. Upon reaching 90% confluence, the cells were prepared as single-cell suspensions at a density of 1 × 10^4 cells/mL by treatment with 0.25% trypsin with 0.02% EDTA and then dispensed into 12-well plates (Corning, NY, USA) with a total volume of 1.5 mL per well. After culturing for 24 h, the medium was discarded, and the cells were incubated with fresh medium or medium containing different hepatotoxic compounds at various concentrations for an additional 24 h. […] After treatment, the cells were collected for apoptosis analysis. To investigate the effects of the hepatotoxic compounds on HepG2 cell apoptosis, flow cytometry was performed with a FACSCalibur flow cytometer (BD Biosciences) using an Annexin V-FITC apoptosis detection kit. The cells were prepared according to the manufacturer’s instructions. Briefly, the collected cell pellets were washed three times by centrifugation at 2000 rpm and 4 °C for 5 min with PBS and resuspended in binding buffer. Then, the cells were incubated with Annexin V-FITC for 15 min, propidium iodide (PI) was added, and the cells were incubated for another 5 min. The whole labeling process was performed in the dark. After fluorescent labeling, the cell suspension was immediately analyzed by flow cytometry. Cells in the early phases of apoptosis can bind Annexin V-FITC but exclude PI, while cells in late apoptosis or those that are necrotic can be stained with Annexin V-FITC and PI simultaneously. The incubation mixtures were prepared following the instructions from the manufacturer of the metabolic stability kits and contained sagittatoside A, icariside I, baohuoside I, and icaritin, of which the final concentrations were 49, 50, 32 and 3.8 μg/mL. […]

[1] = assay type: in vitro ADME, humans; conditions: human, microsomes, 5 μM; for amount remaining: 1 h; for final amount remaining: 60 min
Procedure: The incubation mixtures were prepared following the instructions from the manufacturer of the metabolic stability kits and contained sagittatoside A, icariside I, baohuoside I, and icaritin, of which the final concentrations were 49, 50, 32 and 3.8 μg/mL. The final concentration of organic solvents in the incubation mixture was 1% (v/v). After preincubation for 5 min at 37 °C, metabolic reactions of phase I and II were both initiated by the addition of human liver microsomes (final concentration, 0.20 mg protein/mL). Phase I metabolism is mediated by the enzyme cytochrome P450 (CYP), and phase II metabolism is mediated by UDP-glucuronosyltransferase (UGT). The whole reaction process was performed under aerobic conditions. After 30 min, an equal volume of cold acetonitrile was added and vortexed for 1 min to terminate the reactions. Subsequently, 200 μL of the resulting solution was centrifuged at 3000 rpm and 4 °C for 10 min. Then, 100 μL of supernatant was dried at 40 °C with nitrogen gas, and the residue was redissolved in 100 μL with fresh medium to prepare for treating cells. Negative controls (incubation without substrate) were prepared in the same manner.
The incubation mixtures were also prepared following Section 2.4 and contained sagittatoside A, icariside I, baohuoside I, and icaritin, of which the final concentrations were 5.00 μM. After the mixtures were incubated separately in phase I or phase II metabolism systems for 5, 10, 15, 20, 30, 45 and 60 min, the reactions were terminated by adding an equal volume of cold acetonitrile (with 7 μM IS) and vortex mixing for 1 min. Subsequently, 200 μL of the resulting solution was centrifuged at 3000 rpm and 4 °C for 10 min. Then, 100 μL of supernatant was dried at 40 °C with nitrogen gas, and the residue was redissolved in 100 μL of 50% methanol to prepare the samples for HPLC–MS/MS detection. Time zero samples (prepared by first adding cold acetonitrile and then adding NADPH for phase I metabolism or NADPH and UDPGA for phase II metabolism) and negative controls (incubation without substrate) were prepared separately in the same manner.
HPLC analysis was performed on an AB Sciex ExionLC HPLC system (Santa Clara, CA, USA) equipped with an autosampler, a vacuum degasser unit, a quaternary pump, a diode array detector (DAD) and a column compartment. Samples were separated on an ACQUITY ΜPLC BEH C18 column (2.1 × 100 mm, 1.7 μm) connected to an ACQUITY ΜPLC BEH C18 precolumn (2.1 × 5 mm, 1.7 μm) at 40 °C. The mobile phases were water with 0.05% formic acid (A) and methanol-acetonitrile (v/v 1:1) with 0.05% formic acid (B), and the elution gradient was as follows: 70% A (0.00–1.00 min), 2% A (2.50–3.50 min), and 70% A (3.51–7.00 min). The flow rate was set at 0.23 mL/min, and the injection volume was 5 μL.
Electrospray ionization–mass spectrometry (ESI–MS) analyses were performed on an AB Sciex QTRAP 5500 (EG250911902) mass spectrometer (Santa Clara, CA, USA). Detection was performed with multiple reaction monitoring (MRM) in ESI negative ion mode. The spray voltage was set to −4500 V, the curtain gas was 25 psi, the collision gas was set to medium, both auxiliary gases 1 and 2 were used at 45 psi, and the heating temperature was 550 °C.
In accordance with the above HPLC–MS/MS analysis method, the content of each compound in the sample at each time point was measured. Then, using the substrate depletion method, the content of each compound in the time zero sample was set as 100%, and the percent residual substrate was calculated. The relationship between the natural logarithmic value of the percent residual substrate and time point was explored by linear regression using GraphPad Prism 5.0 software, and the slope (−k) was obtained. […]

in vitro [2] = assay type: in vitro ADME, mice; conditions: mouse, microsomes; for amount remaining: 1 h, 5 μM
in vitro [3] = assay type: in vitro ADME, mice; conditions: mouse, microsomes; for final amount remaining: 60 min, 5 μM

| amount remaining [1] [%] | final amount remaining [1] [%] | amount remaining (in vitro [2]) [%] | final amount remaining (in vitro [3]) [%] | CLint scaled at 5 μM (in vitro [2]) [mL/min/kg] | CLint scaled at 5 μM (in vitro [3]) [mL/min/kg] | Compound | apoptosis rate, metabolism mixture (HepG2 cells; 3.8 μg/mL incubated 30 min with human liver microsomes (phase I and II), p < 0.01) [%] | apoptosis rate, metabolism mixture (HepG2 cells; 50 μg/mL incubated 30 min with human liver microsomes (phase I and II), p < 0.05) [%] | apoptosis rate, metabolism mixture (HepG2 cells; 32 μg/mL incubated 30 min with human liver microsomes (phase I and II), insignificant) [%] |
| --- | --- | --- | --- | --- | --- | --- | --- | --- | --- |
| 36.23 ± 1.12 | 20.51 ± 0.97 | 28.55 ± 0.04 | 7.73 ± 0.17 | – | – | COc1ccc(-c2oc3c(CC=C(C)C)c(O)cc(O)c3c(=O)c2O)cc1 [icaritin] | 5.61 ± 0.83 | – | – |
| 10.08 ± 0.43 | 45.62 ± 1.52 | 7.69 ± 1.17 | 12.18 ± 0.64 | 80.4 | 79.3 | COc1ccc(-c2oc3c(CC=C(C)C)c(O[C@@H]4O[C@H](CO)[C@@H](O)[C@H](O)[C@H]4O)cc(O)c3c(=O)c2O)cc1 [icariside I] | – | 3.86 ± 0.22 | – |
| 20.74 ± 0.39 | 5.56 ± 0.60 | 28.58 ± 4.12 | 11.64 ± 1.63 | – | – | COc1ccc(-c2oc3c(CC=C(C)C)c(O)cc(O)c3c(=O)c2O[C@@H]2O[C@@H](C)[C@H](O)[C@@H](O)[C@H]2O)cc1 [baohuoside I] | – | – | 3.40 ± 0.19 |
